Structures are written as SMILES. Active and inactive are the calls of the source.

Experiment [1] addresses T1, Tyrosyl-DNA phosphodiesterase 2 (Homo sapiens, UniProt O95551).
T1 sequence (O95551 whole entry): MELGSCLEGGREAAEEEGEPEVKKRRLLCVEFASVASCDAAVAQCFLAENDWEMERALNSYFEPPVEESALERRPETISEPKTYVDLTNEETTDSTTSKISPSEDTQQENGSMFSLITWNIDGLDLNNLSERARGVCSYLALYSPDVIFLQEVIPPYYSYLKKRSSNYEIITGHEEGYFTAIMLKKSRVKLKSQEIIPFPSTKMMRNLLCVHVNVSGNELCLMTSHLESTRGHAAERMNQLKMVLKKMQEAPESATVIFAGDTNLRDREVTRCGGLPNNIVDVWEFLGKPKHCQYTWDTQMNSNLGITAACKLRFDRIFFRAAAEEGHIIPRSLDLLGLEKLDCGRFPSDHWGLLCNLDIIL
In words: human TDP2 enzyme inhibitors, dose response, biochemical, epi absorbance, IC50 (AID 743297).

For experiment [2], the target named is T2, 1-phosphatidylinositol 4,5-bisphosphate phosphodiesterase beta-3 (Homo sapiens, UniProt Q01970).
T2 sequence (Q01970 whole entry): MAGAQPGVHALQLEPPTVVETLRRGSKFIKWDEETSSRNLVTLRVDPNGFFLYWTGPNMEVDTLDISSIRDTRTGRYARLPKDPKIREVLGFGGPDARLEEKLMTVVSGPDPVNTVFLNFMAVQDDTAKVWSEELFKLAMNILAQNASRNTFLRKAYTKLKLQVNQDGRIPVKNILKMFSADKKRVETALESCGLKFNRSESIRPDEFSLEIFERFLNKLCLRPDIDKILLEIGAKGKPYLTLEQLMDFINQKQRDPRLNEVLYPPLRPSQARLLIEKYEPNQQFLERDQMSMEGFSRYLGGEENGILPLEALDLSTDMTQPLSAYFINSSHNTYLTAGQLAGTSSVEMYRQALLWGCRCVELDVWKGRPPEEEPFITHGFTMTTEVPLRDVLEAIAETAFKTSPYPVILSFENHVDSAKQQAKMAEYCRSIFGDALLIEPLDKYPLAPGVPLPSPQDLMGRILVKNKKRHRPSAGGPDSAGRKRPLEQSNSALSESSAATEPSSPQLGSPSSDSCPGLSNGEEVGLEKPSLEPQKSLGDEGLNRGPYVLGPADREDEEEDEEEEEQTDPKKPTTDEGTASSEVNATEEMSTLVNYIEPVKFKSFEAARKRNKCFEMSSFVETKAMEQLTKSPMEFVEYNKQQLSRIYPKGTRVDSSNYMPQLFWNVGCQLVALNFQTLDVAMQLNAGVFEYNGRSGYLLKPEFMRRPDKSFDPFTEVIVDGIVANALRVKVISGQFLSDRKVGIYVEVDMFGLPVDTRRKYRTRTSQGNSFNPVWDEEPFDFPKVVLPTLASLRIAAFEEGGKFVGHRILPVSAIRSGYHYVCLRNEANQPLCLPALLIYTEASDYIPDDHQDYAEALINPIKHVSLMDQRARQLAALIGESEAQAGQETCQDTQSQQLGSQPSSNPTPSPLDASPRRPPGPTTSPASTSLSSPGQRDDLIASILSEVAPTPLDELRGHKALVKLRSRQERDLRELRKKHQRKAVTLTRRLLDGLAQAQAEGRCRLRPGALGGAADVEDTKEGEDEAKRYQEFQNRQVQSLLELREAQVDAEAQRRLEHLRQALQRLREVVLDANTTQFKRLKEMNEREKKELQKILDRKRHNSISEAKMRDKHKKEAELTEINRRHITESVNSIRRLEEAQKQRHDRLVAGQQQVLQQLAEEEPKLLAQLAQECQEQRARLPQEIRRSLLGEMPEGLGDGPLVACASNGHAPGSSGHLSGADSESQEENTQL
In words: Fluorescence-based biochemical high throughput dose response assay to identify inhibitors of phospholipase C isozymes (PLC-B3).

Experiment [3] concerns the target BDNF/NT-3 growth factors receptor (Homo sapiens, UniProt Q16620). The class given is functional.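 Also: NTRK2 measured as one member of a broad kinome-wide kinase profiling panel.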
Experiment [4] concerns the target Protein kinase C gamma type (Homo sapiens, UniProt P05129). In kind it is functional.
The target in experiment [5] is cGMP-dependent protein kinase 1 (Homo sapiens, UniProt Q13976). In kind it is functional.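 Also: value from a kinome panel screen with PRKG1 as the panel member.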
Chain of cGMP-dependent protein kinase 1 (Q13976 whole entry): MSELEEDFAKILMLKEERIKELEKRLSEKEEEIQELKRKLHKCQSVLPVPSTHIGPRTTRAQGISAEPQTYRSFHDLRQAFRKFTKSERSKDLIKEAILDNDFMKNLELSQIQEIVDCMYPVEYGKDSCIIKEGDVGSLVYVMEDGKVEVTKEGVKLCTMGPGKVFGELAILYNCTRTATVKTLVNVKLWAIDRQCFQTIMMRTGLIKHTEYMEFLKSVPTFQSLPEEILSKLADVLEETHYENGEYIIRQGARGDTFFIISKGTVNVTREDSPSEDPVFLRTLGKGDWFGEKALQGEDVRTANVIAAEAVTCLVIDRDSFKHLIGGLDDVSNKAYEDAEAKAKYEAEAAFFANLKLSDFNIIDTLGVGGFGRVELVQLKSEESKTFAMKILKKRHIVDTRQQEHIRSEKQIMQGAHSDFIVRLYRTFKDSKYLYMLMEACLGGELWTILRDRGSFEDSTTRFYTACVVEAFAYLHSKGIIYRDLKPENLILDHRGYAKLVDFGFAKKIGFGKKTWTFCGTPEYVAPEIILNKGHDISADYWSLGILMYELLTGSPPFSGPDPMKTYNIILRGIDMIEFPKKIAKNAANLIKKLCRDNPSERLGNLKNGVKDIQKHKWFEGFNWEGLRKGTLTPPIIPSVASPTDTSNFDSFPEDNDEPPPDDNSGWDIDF
The target in experiment [6] is Cyclin-dependent kinase 7 (Homo sapiens, UniProt P50613). The class given is functional.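 Also: value comes from a kinome-wide kinase profiling panel in which CDK7 is one member.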
The target of experiment [7] is RAC-gamma serine/threonine-protein kinase (Homo sapiens, UniProt Q9Y243). The class given is functional.
The target of experiment [8] is Maternal embryonic leucine zipper kinase (Homo sapiens, UniProt Q14680). The class given is functional.
Chain of Maternal embryonic leucine zipper kinase (Q14680 whole entry): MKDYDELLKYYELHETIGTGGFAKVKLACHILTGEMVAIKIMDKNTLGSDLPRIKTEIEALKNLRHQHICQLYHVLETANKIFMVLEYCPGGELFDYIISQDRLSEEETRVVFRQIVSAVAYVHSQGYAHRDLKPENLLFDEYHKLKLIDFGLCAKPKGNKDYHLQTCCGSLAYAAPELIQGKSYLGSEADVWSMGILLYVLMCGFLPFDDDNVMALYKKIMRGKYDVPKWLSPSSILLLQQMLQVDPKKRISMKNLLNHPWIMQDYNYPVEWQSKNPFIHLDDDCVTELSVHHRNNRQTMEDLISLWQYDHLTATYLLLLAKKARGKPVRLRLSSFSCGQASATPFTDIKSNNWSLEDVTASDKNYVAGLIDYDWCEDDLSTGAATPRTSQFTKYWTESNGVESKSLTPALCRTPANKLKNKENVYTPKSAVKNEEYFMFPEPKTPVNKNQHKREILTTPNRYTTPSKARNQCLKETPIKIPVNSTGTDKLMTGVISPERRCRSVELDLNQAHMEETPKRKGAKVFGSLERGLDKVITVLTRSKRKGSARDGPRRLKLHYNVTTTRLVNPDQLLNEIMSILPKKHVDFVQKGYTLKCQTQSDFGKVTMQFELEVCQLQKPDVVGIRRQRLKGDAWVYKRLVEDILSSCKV
Experiment [9] deals with Serine/threonine-protein kinase pim-1 (Homo sapiens, UniProt P11309). The class given is functional.
Experiment [10] addresses Proto-oncogene tyrosine-protein kinase Src (Homo sapiens, UniProt P12931). The class given is functional.
Experiment [11] deals with Serine/threonine-protein kinase PLK1 (Homo sapiens, UniProt P53350). The class given is functional.
Chain of Serine/threonine-protein kinase PLK1 (P53350 whole entry): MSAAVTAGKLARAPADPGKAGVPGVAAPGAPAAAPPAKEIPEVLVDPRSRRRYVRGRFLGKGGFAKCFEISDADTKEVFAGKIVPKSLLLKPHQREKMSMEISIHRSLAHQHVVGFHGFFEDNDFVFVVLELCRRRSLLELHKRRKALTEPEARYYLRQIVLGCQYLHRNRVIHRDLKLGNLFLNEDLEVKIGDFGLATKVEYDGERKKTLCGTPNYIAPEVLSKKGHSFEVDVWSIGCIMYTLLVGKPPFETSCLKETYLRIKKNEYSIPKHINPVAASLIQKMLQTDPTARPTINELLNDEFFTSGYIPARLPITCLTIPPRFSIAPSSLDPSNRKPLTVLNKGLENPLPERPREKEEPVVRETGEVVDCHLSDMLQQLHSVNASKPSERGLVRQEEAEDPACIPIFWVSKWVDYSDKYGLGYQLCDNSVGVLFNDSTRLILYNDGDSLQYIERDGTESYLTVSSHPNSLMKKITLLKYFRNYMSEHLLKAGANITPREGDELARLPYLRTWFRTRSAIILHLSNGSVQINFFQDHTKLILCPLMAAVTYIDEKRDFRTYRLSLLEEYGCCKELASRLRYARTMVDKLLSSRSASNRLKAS
Experiment [12] deals with MAP kinase-activated protein kinase 5 (Homo sapiens, UniProt Q8IW41). In kind it is functional.
The target in experiment [13] is Homeodomain-interacting protein kinase 2 (Homo sapiens, UniProt Q9H2X6). In kind it is functional.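 Also: measured within a kinome-wide kinase profiling panel, HIPK2 being one panel member.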
The target of experiment [14] is Tyrosine-protein kinase Srms (Homo sapiens, UniProt Q9H3Y6). In kind it is functional.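 Also: SRMS measured as one member of a kinome-wide kinase profiling panel.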
Chain of Tyrosine-protein kinase Srms (Q9H3Y6 whole entry): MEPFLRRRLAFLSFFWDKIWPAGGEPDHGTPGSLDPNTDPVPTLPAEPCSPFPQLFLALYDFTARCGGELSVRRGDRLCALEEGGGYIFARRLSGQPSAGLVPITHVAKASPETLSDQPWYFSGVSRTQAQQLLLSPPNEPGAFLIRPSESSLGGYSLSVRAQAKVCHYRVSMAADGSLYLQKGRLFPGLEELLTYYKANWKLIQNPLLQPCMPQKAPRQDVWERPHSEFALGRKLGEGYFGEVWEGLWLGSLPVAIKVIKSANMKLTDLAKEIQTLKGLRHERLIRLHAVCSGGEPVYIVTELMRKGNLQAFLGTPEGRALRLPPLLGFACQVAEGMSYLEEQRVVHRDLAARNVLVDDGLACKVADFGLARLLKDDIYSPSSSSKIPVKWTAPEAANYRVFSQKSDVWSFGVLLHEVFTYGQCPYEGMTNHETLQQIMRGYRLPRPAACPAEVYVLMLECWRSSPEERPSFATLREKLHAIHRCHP
The target of experiment [15] is Serine/threonine-protein kinase Chk1 (Homo sapiens, UniProt O14757). In kind it is functional.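 Also: measured as one member of a kinome-wide kinase profiling panel.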
Experiment [16] has as its target Cyclin-dependent kinase 2 (Homo sapiens, UniProt P24941). The class given is functional.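 Also: CDK2 measured as one member of a broad kinome profiling panel.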
Experiment [17] deals with Tyrosine-protein kinase Lyn (Homo sapiens, UniProt P07948). In kind it is functional.
Chain of Tyrosine-protein kinase Lyn (P07948 whole entry): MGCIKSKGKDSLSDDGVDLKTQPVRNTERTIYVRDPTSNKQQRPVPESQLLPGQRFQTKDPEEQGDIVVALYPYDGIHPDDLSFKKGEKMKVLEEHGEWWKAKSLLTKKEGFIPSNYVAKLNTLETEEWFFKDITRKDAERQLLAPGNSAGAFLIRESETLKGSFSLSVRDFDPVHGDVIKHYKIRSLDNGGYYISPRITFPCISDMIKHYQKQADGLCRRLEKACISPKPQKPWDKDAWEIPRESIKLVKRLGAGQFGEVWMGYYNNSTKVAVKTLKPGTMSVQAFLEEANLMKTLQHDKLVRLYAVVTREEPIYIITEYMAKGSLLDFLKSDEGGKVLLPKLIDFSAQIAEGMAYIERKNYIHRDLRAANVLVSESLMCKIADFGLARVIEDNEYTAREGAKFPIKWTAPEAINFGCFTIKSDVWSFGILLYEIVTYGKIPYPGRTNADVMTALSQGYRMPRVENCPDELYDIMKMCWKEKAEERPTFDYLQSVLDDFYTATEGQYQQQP
Experiment [18] addresses Serine/threonine-protein kinase Nek4 (Homo sapiens, UniProt P51957). In kind it is functional.
Experiment [19] deals with Calcium/calmodulin-dependent protein kinase type II subunit delta (Homo sapiens, UniProt Q13557). The class given is functional.
Experiment [20] deals with Cell division cycle 7-related protein kinase (Homo sapiens, UniProt O00311). In kind it is functional.

Chain of Proto-oncogene tyrosine-protein kinase Src (P12931 2-536 limits assumed): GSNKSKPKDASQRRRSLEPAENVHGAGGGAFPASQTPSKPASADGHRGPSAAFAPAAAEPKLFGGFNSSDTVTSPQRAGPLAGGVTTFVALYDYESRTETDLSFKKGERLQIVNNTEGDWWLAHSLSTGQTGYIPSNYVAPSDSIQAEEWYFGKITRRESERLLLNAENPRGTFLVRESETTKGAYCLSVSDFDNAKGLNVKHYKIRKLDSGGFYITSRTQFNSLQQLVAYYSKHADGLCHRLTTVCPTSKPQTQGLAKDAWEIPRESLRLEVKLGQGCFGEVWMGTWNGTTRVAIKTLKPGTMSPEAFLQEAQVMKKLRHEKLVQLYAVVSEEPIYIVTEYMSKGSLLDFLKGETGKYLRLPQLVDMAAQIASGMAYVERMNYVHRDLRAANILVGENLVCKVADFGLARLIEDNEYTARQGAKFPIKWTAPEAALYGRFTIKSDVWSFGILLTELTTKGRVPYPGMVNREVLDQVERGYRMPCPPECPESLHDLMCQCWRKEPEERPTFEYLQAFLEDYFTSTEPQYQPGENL
Chain of Serine/threonine-protein kinase Nek4 (P51957 whole entry): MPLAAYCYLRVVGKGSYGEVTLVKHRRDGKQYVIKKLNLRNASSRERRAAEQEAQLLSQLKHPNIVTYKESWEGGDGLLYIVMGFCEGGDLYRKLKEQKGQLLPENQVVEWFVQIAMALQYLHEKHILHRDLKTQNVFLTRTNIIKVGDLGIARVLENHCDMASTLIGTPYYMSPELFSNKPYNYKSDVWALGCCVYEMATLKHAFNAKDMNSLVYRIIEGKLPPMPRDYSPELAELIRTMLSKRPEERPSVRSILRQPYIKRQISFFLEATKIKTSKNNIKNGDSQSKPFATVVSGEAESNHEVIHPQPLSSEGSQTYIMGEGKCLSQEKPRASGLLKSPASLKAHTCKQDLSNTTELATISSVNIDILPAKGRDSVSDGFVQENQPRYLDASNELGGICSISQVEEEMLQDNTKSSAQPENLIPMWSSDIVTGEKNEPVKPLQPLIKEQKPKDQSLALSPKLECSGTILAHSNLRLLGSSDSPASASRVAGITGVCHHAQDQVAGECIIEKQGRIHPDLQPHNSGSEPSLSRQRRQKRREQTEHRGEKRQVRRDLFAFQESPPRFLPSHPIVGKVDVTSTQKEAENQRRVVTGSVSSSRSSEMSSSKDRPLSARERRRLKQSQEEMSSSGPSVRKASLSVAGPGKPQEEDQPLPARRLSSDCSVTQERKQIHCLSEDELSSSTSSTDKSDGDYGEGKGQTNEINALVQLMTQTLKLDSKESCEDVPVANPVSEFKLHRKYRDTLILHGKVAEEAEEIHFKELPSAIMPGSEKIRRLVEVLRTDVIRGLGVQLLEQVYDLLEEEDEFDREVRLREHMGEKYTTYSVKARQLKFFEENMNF

As to `Cc1ccc(/C=C2/C(=O)c3ccc(C(=O)O)cc3C2=O)o1`, the IC50 is > 128000 nM (inactive) in experiment [1] and > 122000 nM (inactive) in experiment [2].

Take `Clc1cc(NC2CCCCC2)nc(-c2c[nH]c3ncccc23)n1`: the Ki is > 5010 nM (inactive) in experiment [3]; 501 nM (active) in [4]; 501 nM (active) in experiment [5]; > 6310 nM (inactive) in experiment [6]; > 10000 nM (inactive) in [7]; 316 nM (active) in experiment [8]. For the same molecule, the Ki in [9] was > 3980 nM (inactive); in experiment [10], > 2000 nM (inactive); in experiment [11], 501 nM (active); in experiment [12], > 1580 nM (inactive); in [13], 631 nM (active); in [14], > 1580 nM (inactive). Further, the Ki is 1000 nM (active) in experiment [15]; > 1580 nM (inactive) in [16]; 631 nM (active) in [17]; 2510 nM (active) in [18]; > 3160 nM (inactive) in experiment [19]; 2 nM (active) in experiment [20].

As usually defined, the IC50 is the point on the concentration scale where inhibition reaches its midpoint. By Ki is commonly meant the equilibrium dissociation constant of an inhibitor or competing ligand from its target.
